Measurements taken from patent publication US12691119B2, “Methods for treating covid-19 with sepiapterin” (PTC Therapeutics MP, Inc., priority 2021, dated 2026).

Legend:
[1] = system: cytokine expression in the lungs; assay: Intranasal LPS model of ARDS, cytokine expression in BAL fluid by ELISA; format: in vivo; details: mice, 10 mg/kg per day oral gavage for 3 days, then 40 ug LPS intranasally; BAL 16-18 hours later; FIG. 1
Method: FIG. 1 is a graph showing cytokine expression in the lungs of mice treated with intranasal lipopolysaccharide (LPS) with or without 10 mg/kg sepiapterin (SP) treatment.
This is in line with the therapeutic effect of SP in a Dextran Sulfate Sodium//Azoxymethane model of colitis/colon cancer.
Mice were treated with either 10 mg/kg sepiapterin (SP) per day delivered via oral gavage or nothing for 3 days. Mice were then treated with 40 ug lipopolysaccharide (LPS) inhaled intranasally. 16-18 hours later, bronchoalveolar lavage (BAL) fluid was collected and assess for cytokine expression via ELISA. Untreated (UT) (n=1), LSP (n=3), LSP+SP (n=2). (FIG. 1).

[2] = Stability on exposure to air; format: physicochemical; details: exposed to air
Source text: Accordingly, pharmaceutical compositions of the invention may include antioxidants. The antioxidant may minimize the oxidative degradation of sepiapterin. […]

[3] = healthy volunteers and subjects with Phenylketonuria, Primary BH4 Deficiencies, or diabetic gastroparesis; cited from earlier work
[4] = system: OT-I cells; assay: OT-I splenocyte transfer with ova peptide-pulsed BMDCs; proliferation and IFN-γ by flow cytometry; format: in vivo, C57/B16 mice; details: mice
Method: FIG. 3A is a graph showing the proliferation and activation of CD8^+ T cells in the presence of sepiapterin in vivo.
FIG. 3B is a graph showing cytokine (IFN-γ) expression in cells in the presence of sepiapterin in vivo.
2×10^6 OT-I splenocytes were injected into C57/B16 mice via tail vein injection. 24 hours later, 1×10^6 ova peptide-pulsed bone marrow derived dendritic cells were injected into these mice subcutaneously. Starting on day 3, mice were given 10 mg/kg SP orally for 3 consecutive days. On day 6, mice were sacrificed and spleens were harvested and stimulated for 6 hours with brefeldin A (BFA), phorbol myristate acetate (PMA), and ionomycin. OT-I proliferation (FIG. 3A) and IFN-γ expression (FIG. 3B) were assessed via flow cytometry.

[5] = system: CD8+ T cells (pmel splenocytes); assay: CFSE-labeled pmel splenocytes co-cultured with gp100-pulsed BMDCs; CFSE dilution by flow cytometry, cytokines by ELISA; format: cell-based; details: in vitro
Source text: FIG. 2A is a graph showing the proliferation and activation of CD8^+ T cells in the presence of sepiapterin in vitro.
FIG. 2B is a graph showing cytokine (interferon gamma, IFN-γ) expression in cells in the presence of sepiapterin in vitro.
FIG. 2C is a graph showing cytokine (interleukin 2, IL-2) expression in cells in the presence of sepiapterin in vitro.
1×10^5 pmel splenocytes were labeled with carboxyfluorescein succinimidyl ester (CFSE) and then co-cultured, at either a 1:10 or 1:40 ratio (splenocytes:BMDC), with gp100-pulsed bone marrow derived dendritic cells (BMDCs) for 3 days. Sepiapterin (SP) was added after BMDCs were added to splenocytes. After incubation, CFSE dilution was measured via flow cytometry (FIG. 2A) and cytokine expression was measured via ELISA (FIGS. 2B and 2C). No DC=no dendritic cells, UT=untreated. […] The enhanced secretion of IFN-γ in FIG. 2B is a result of the higher number of T cells present in wells treated with SP.

[6] = system: innate immune cell mediated inflammation in the colon; details: caused by DSS in the colon, preclinical models; cited from earlier work

In the case of `C[C@H](O)C(=O)C1=Nc2c(nc(N)[nH]c2=O)NC1` [sepiapterin, (S)-2-amino-6-(2-hydroxypropanoyl)-7,8-dihydropteridin-4(3H)-one], the “cytokine expression in bronchoalveolar lavage (BAL) fluid” value [1] is listed as “lower levels of cytokine expression”, the oxidation stability [2] is listed as “prone to rapid oxidation when exposed to air” and the tolerability [3] is listed as “well tolerated”. The OT-I proliferation ([4]; 10 mg/kg orally for 3 consecutive days from day 3, spleens day 6, FIG. 3A) was “enhanced proliferation of OT-I cells”, the “T cell activation and IFN-γ secretion” value ([4]; 10 mg/kg orally for 3 consecutive days, spleens stimulated 6 hours with BFA, PMA, ionomycin, FIG. 3B) was “minimal effect on T cell activation and IFN-γ secretion” and the “proliferation of CD8+ T cells (CFSE dilution)” value ([5]; 3 days co-culture, 1:10 or 1:40 splenocytes:BMDC, FIG. 2A) was “enhanced proliferation of anti-viral CD8^+ T cells in a dose dependent manner”. The “T cell activation and IFN-γ secretion” value ([5]; ELISA, FIGS. 2B and 2C) was “without directly affecting T cell activation and IFN-γ secretion” and the “innate immune cell mediated inflammation” value [6] was “profoundly suppress innate immune cell mediated inflammation”.
